Measurements taken from DBAASP.
In brackets after ≈: the same amount, converted by molar mass. Several values for one entry are separate records, joined by “and”; a condition that tells them apart may be missing. Identical values can stand only once. Values belong to the molecule of their own block, whether it stands above or below them.

How the values were obtained:
Assay in all cases: ≥ marks a high value that may be exact or a test limit, other limits are often not marked, values filed in µg/mL are converted to µM
Candida albicans PEEC 2 = tested on: Candida albicans PEEC 2
[1] = tested on: Staphylococcus aureus ATCC 25923
Candida albicans DBFIQ 1 = tested on: Candida albicans DBFIQ 1
[2] = tested on: Pseudomonas aeruginosa ATCC 27853
[3] = tested on: Enterococcus faecalis ATCC 29212
[4] = tested on: Escherichia coli ATCC 35218
[5] = tested on: Candida tropicalis DBFIQ 3
[6] = tested on: Staphylococcus aureus BSF FBCB1313
[7] = tested on: Candida albicans ATCC 10231
[8] = tested on: Candida tropicalis ATCC 750
[9] = tested on: Candida glabrata ATCC 2001
[10] = tested on: Escherichia coli ATCC 25922
[11] = tested on: Staphylococcus aureus ATCC 29213
Candida krusei ATCC 6258 = tested on: Candida krusei ATCC 6258
[12] = tested on: Candida parapsilosis ATCC 90018
[13] = tested on: Pseudomonas aeruginosa ATCC 27853(RifR)
[14] = tested on: Acinetobacter baumannii ATCC 19606(CipR)
[15] = tested on: Escherichia coli ATCC 25922(RifR)
[16] = tested on: Pseudomonas aeruginosa ATCC 27853(GenR)
[17] = tested on: Escherichia coli ATCC 25922(CipR)
[18] = tested on: Bacillus subtilis ATCC 23857
[19] = tested on: Acinetobacter baumannii 97830
Escherichia coli 804 = tested on: Escherichia coli 804
[20] = tested on: Staphylococcus aureus 113
[21] = tested on: Klebsiella pneumoniae ATCC 700603(ImiR)
[22] = tested on: Escherichia coli ATCC 25922(ImiR)
[23] = tested on: Klebsiella pneumoniae ATCC 700603
[24] = tested on: Acinetobacter baumannii ATCC 19606(GenR)
[25] = tested on: Acinetobacter baumannii ATCC 19606
Staphylococcus aureus 75 = tested on: Staphylococcus aureus 75
[26] = tested on: Pseudomonas aeruginosa ATCC 27853(ImiR)
[27] = tested on: Pseudomonas aeruginosa ATCC 27853(CipR)
[28] = tested on: Klebsiella pneumoniae ATCC 700603(GenR)
[29] = tested on: Pseudomonas aeruginosa ATCC 9027
[30] = tested on: Staphylococcus epidermidis ATCC 12228
[31] = tested on: Escherichia coli ATCC 25922(GenR)
[32] = tested on: Acinetobacter baumannii ATCC 19606(RifR)
[33] = tested on: Pseudomonas aeruginosa 50
Escherichia coli 780 = tested on: Escherichia coli 780
[34] = tested on: Acinetobacter baumannii 9931
[35] = tested on: Klebsiella pneumoniae ATCC 700603(RifR)
[36] = tested on: Acinetobacter baumannii ATCC 19606(ImiR)
[37] = tested on: Klebsiella pneumoniae ATCC 700603(CipR)
Yersinia enterocolitica = tested on: Yersinia enterocolitica
Escherichia coli = tested on: Escherichia coli
Staphylococcus aureus = tested on: Staphylococcus aureus
[38] = tested on: Bifidobacterium longum subsp. infantis
[39] = tested on: Escherichia coli DH5alpha
Bacillus subtilis PY22 = tested on: Bacillus subtilis PY22
[40] = tested on: Candida albicans TIMM 0144
[41] = tested on: Trichophyton mentagrophytes TIMM 1189

Compound: CC(C)C[C@H](NC(=O)[C@@H](N)CCCCN)C(=O)N[C@@H](Cc1ccccc1)C(=O)N[C@@H](CCCCN)C(N)=O [KLFK]
- MIC (Candida albicans PEEC 2): ≥ 480 µM
- MIC [1]: > 240 µM
- MIC (Candida albicans DBFIQ 1): ≥ 480 µM
- MIC [2]: > 240 µM
- MIC [3]: > 240 µM
- MIC [4]: ≥ 240 µM
- MIC [5]: ≥ 480 µM
- MIC [6]: ≥ 240 µM

Compound: CC(=O)N[C@@H](CCCN=C(N)N)C(=O)N[C@@H](Cc1c[nH]c2ccccc12)C(=O)N[C@@H](CCCN=C(N)N)C(=O)N[C@@H](Cc1ccccc1)C(=O)N[C@@H](Cc1c[nH]c2ccccc12)C(=O)N[C@@H](CCCN=C(N)N)C(N)=O [RWRFWR]
- MIC [39]: ≥ 125 µM
- MIC (Bacillus subtilis PY22): 31.3 µM (≈ 32.8 µg/mL)

Compound: CC[C@H](C)[C@H](NC(=O)[C@@H]1CSSC[C@H](NC(=O)[C@H](CCCCN)NC(=O)[C@@H](N)[C@@H](C)O)C(=O)N[C@@H](Cc2ccccc2)C(=O)N[C@@H](CCC(N)=O)C(=O)N[C@@H](Cc2c[nH]c3ccccc23)C(=O)N[C@@H](CCC(N)=O)C(=O)N[C@@H](CCCN=C(N)N)C(=O)N[C@@H](CC(N)=O)C(=O)N[C@@H](CCSC)C(=O)N[C@@H](CCCN=C(N)N)C(=O)N[C@@H](CCCCN)C(=O)N[C@@H](C(C)C)C(=O)N[C@@H](CCCN=C(N)N)C(=O)NCC(=O)N2CCC[C@H]2C(=O)N2CCC[C@H]2C(=O)N[C@@H](C(C)C)C(=O)N[C@@H](CO)C(=O)N1)C(=O)N[C@@H](CCCCN)C(=O)N[C@@H](CCCN=C(N)N)C(=O)N[C@@H](CC(=O)O)C(=O)N[C@@H](CO)C(=O)O [TKCFQWQRNMRKVRGPPVSCIKRDS]
- MIC [40]: ≥ 33.1 µM
- MIC [10]: > 128 µM
- MIC [41]: 16.5 µM (≈ 50 µg/mL)

Now from value to molecule:

- MIC [7]: 62.5 µM (≈ 91.2 µg/mL)
- MIC [8]: 31.2 µM (≈ 45.5 µg/mL)
- MIC [9]: ≥ 250 µM
- MIC [10]: 62.5 µM (≈ 91.2 µg/mL)
- MIC [11]: 31.2 µM (≈ 45.5 µg/mL)
- MIC (Candida krusei ATCC 6258): ≥ 62.5 µM
- MIC [2]: 62.5 µM (≈ 91.2 µg/mL)
- MIC [12]: ≥ 125 µM
Compound: CC[C@H](C)[C@H](NC(=O)CN)C(=O)N[C@@H](CC(C)C)C(=O)N[C@@H](CC(=O)O)C(=O)N[C@H](C(=O)N[C@@H](CCCCN)C(=O)N[C@@H](CC(N)=O)C(=O)N[C@@H](CCCCN)C(=O)N[C@H](C(=O)N[C@@H](CO)C(=O)N[C@@H](CC(N)=O)C(=O)N[C@@H](CC(C)C)C(=O)N[C@@H](Cc1ccccc1)C(N)=O)C(C)C)[C@@H](C)CC [GILDIKNKVSNLF]

- MIC [13]: 4 µM (≈ 9.48 µg/mL)
- MIC [14]: 8 µM (≈ 19 µg/mL)
- MIC [15]: 16 µM (≈ 37.9 µg/mL)
- MIC [16]: ≥ 32 µM
- MIC [17]: 8 µM (≈ 19 µg/mL)
- MIC [18]: 2 µM (≈ 4.74 µg/mL)
- MIC [19]: 4 µM (≈ 9.48 µg/mL)
- MIC (Escherichia coli 804): 16 µM (≈ 37.9 µg/mL)
- MIC [20]: 2 µM (≈ 4.74 µg/mL)
- MIC [1]: 4 µM and 8 µM
- MIC [21]: 16 µM (≈ 37.9 µg/mL)
- MIC [22]: 16 µM (≈ 37.9 µg/mL)
- MIC [11]: 4 µM (≈ 9.48 µg/mL)
- MIC [23]: 8 µM (≈ 19 µg/mL)
- MIC [24]: 16 µM (≈ 37.9 µg/mL)
- MIC [2]: 4 µM (≈ 9.48 µg/mL)
- MIC [25]: 8 µM (≈ 19 µg/mL)
- MIC (Staphylococcus aureus 75): 4 µM (≈ 9.48 µg/mL)
- MIC [26]: 8 µM (≈ 19 µg/mL)
- MIC [27]: 4 µM (≈ 9.48 µg/mL)
- MIC [28]: 16 µM (≈ 37.9 µg/mL)
- MIC [29]: 4 µM (≈ 9.48 µg/mL)
- MIC [30]: 2 µM (≈ 4.74 µg/mL)
- MIC [31]: 8 µM (≈ 19 µg/mL)
- MIC [32]: 8 µM (≈ 19 µg/mL)
- MIC [33]: 2 µM (≈ 4.74 µg/mL)
- MIC (Escherichia coli 780): 4 µM (≈ 9.48 µg/mL)
- MIC [34]: 8 µM (≈ 19 µg/mL)
- MIC [35]: 16 µM (≈ 37.9 µg/mL)
- MIC [36]: 16 µM (≈ 37.9 µg/mL)
- MIC [37]: 16 µM (≈ 37.9 µg/mL)
Compound: NCCCC[C@H](NC(=O)[C@H](CCCN=C(N)N)NC(=O)[C@H](Cc1c[nH]c2ccccc12)NC(=O)[C@H](CCCCN)NC(=O)[C@H](CCCN=C(N)N)NC(=O)[C@H](Cc1c[nH]c2ccccc12)NC(=O)[C@H](CCCCN)NC(=O)[C@H](CCCN=C(N)N)NC(=O)[C@H](Cc1c[nH]c2ccccc12)NC(=O)[C@H](CCCCN)NC(=O)[C@H](CCCN=C(N)N)NC(=O)[C@H](Cc1c[nH]c2ccccc12)NC(=O)[C@H](CCCCN)NC(=O)[C@H](CCCN=C(N)N)NC(=O)[C@@H](N)Cc1c[nH]c2ccccc12)C(N)=O [WRKWRKWRKWRKWRK]

- MIC [1]: 89.1 µM (≈ 200 µg/mL)
- MIC (Yersinia enterocolitica): ≥ 89.1 µM
Compound: CC[C@H](C)[C@H](NC(=O)[C@H](CCC(N)=O)NC(=O)[C@H](Cc1cnc[nH]1)NC(=O)[C@@H](NC(=O)[C@@H]1CCCN1C(=O)[C@H](CC(N)=O)NC(=O)[C@H](CC(C)C)NC(=O)[C@H](CC(C)C)NC(=O)[C@H](CC(C)C)NC(=O)[C@@H](N)CCC(=O)O)[C@@H](C)O)C(=O)N[C@@H](Cc1ccc(O)cc1)C(=O)N1CCC[C@H]1C(=O)N[C@H](C(=O)N[C@H](C(=O)N[C@@H](CCC(N)=O)C(=O)N1CCC[C@H]1C(=O)N[C@@H](CC(C)C)C(=O)N[C@@H](C)C(=O)N1CCC[C@H]1C(=O)N[C@H](C(=O)O)C(C)C)[C@@H](C)O)C(C)C [ELLLNPTHQIYPVTQPLAPV]

- MIC (Escherichia coli): > 2720 µM
- MIC (Staphylococcus aureus): > 2720 µM
- MIC [38]: ≥ 2720 µM
Compound: CC[C@H](C)[C@H](NC(=O)[C@@H](NC(=O)[C@@H]1CCCN1C(=O)[C@H](CC(C)C)NC(=O)[C@H](C)NC(=O)[C@H](CO)NC(=O)[C@@H](NC(=O)[C@@H](N)CCSC)[C@@H](C)O)[C@@H](C)CC)C(=O)N[C@@H](CCC(N)=O)C(=O)N[C@@H](CCCCN)C(=O)O [MTSALPIIQK]
